Results from patent EP4541797A1, “CAMPTOTHECIN DERIVATIVE, METHOD FOR PREPARING SAME, AND USE THEREOF” (Hangzhou Adcoris Biopharma Co., Ltd, priority 2022, dated 2024).
Where two headings read alike, the source gives them in different places.

Assays:
Format in all cases: cell-based
NCI-N87 cells = assay: Inhibitory activity on cancer cell growth (CCK-8, 72 h), NCI-N87 cells; settings: Homo sapiens, NCI-N87, 72 h, human gastric cancer cells NCI-N87, 72 h incubation
Method: (§1) Human esophageal cancer cells OE33, human breast adenocarcinoma cells SK-BR-3 and human gastric cancer cells NCI-N87 were cultured in RPMI1640 (Cellmax) supplemented with 10% fetal bovine serum (Cellmax) respectively. Cells in the exponential growth phase were diluted to a concentration of 1×10^5cells/mL by culture medium and added to 96-well cell culture plates at 100µL per well, then incubated overnight in a 37°C incubator with 5% CO2. On the following day, the test compounds and control compounds were diluted to concentrations of 10000 nM, 2000 nM, 400 nM, 80 nM, 16 nM, 3.2 nM, 0.64 nM, and 0.13 nM by culture medium and added to the 96-well cell culture plates at 2µL per well, with three replicate wells for each concentration. Negative control and blank control groups without the addition of compounds were supplemented with 2µL of the dilution liquid per well. After the addition of the compounds, the plates were returned to the 37°C incubator with 5% CO2 to continue incubation for 72 h. After incubation, the cell culture plates were removed, and the culture medium was aspirated using a pipette. Then, 100µL of culture medium containing 10% CCK-8 was added to each well, and the plates were incubated at 37°C for 3 h. After incubation, the plates were removed, kept in the dark, and placed in ELISA plate. Absorbance was measured at 630nm as the reference wavelength and 450nm as the test wavelength. The IC50 values (Tables 1-3) were calculated using the four-parameter logistic regression method in GraphPad, based on the absorbance values. SN38 (7-ethyl-10-hydroxycamptothecin) and 10CPT (10-hydroxycamptothecin) were used as control compounds. For the IC50 values, wherein "++++" indicates an IC50 < 50 nM; "+++" indicates an IC50 between 50 nM and 100 nM; "++" indicates an IC50 between 100 nM and 500 nM; and "+" indicates an IC50 > 500 nM. Table 1: Inhibitory activity of compounds to inhibit the growth of OE33 cells

SK-BR-3 cells = assay: Inhibitory activity on cancer cell growth (CCK-8, 72 h), SK-BR-3 cells; settings: Homo sapiens, SK-BR-3, 72 h, human breast adenocarcinoma cells SK-BR-3, 72 h incubation
Method: as §1

OE33 cells = assay: Inhibitory activity on cancer cell growth (CCK-8, 72 h), OE33 cells; settings: Homo sapiens, OE33, 72 h, human esophageal cancer cells OE33, 72 h incubation
Method: as §1

[1] = numeric value or bound, read-out: IC50

SMILES	IC50 (NCI-N87 cells)	IC50 (NCI-N87 cells; bound stated)	IC50 (SK-BR-3 cells)	IC50 (SK-BR-3 cells; bound stated)	IC50 (OE33 cells)	IC50 (OE33 cells; numeric value or bound)	IC50 (NCI-N87 cells; bound stated, read-out: IC50)	IC50 (NCI-N87 cells; read-out: IC50)	IC50 (SK-BR-3 cells; bound stated, read-out: IC50)	IC50 (SK-BR-3 cells; read-out: IC50)	IC50 (OE33 cells; [1])	IC50 (OE33 cells; read-out: IC50)
CCN(C)Cc1c(O)ccc2nc3c(cc12)Cn1c-3cc2c(c1=O)COC(=O)[C@]2(O)CC [Compound 19, 9-(N-methylethylamine)methyl-10-hydroxycamptothecin]	< 50 nM	< 100 nM	50 to 100 nM	< 100 nM	50 to 100 nM	< 100 nM	–	–	–	–	–	–
CC[C@@]1(O)C(=O)OCc2c1cc1n(c2=O)Cc2cc3c(CN(C)C(C)C)c(O)ccc3nc2-1 [Compound 10, 9-(N-methyl-N-isopropylamino)methyl-10-hydroxycamptothecin]	–	–	–	–	–	–	< 100 nM	< 50 nM	< 100 nM	50 to 100 nM	< 100 nM	50 to 100 nM
CC[C@@]1(O)C(=O)OCc2c1cc1n(c2=O)Cc2cc3c(CN4CCN(C(=O)OC)CC4)c(O)ccc3nc2-1 [Compound 9, 9-(1-(4-methoxycarbonylpiperazine))methyl-10-hydroxycamptothecin]	–	–	–	–	–	–	–	< 50 nM	–	50 to 100 nM	–	100 to 500 nM
CC[C@@]1(O)C(=O)OCc2c1cc1n(c2=O)Cc2cc3c(CN(C)C4CC4)c(O)ccc3nc2-1 [Compound 17, 9-(N-methyl-N-cyclopropylamine)methyl-10-hydroxycamptothecin]	–	–	–	–	–	–	< 100 nM	< 50 nM	< 100 nM	50 to 100 nM	< 100 nM	50 to 100 nM
